Target: hydrilla PDS position 304 Arginine, His-tagged (Hydrilla verticillata, UniProt Q66PY0)
Assay: Cross-resistance testing, His-tagged column-purified PDS (Table 2A)
Assay type: biochemical
Conditions: for IC50: Arginine at 304, His-tagged, column-purified PDS, read-out: I50; for R/S: Arginine at 304 (reference), Table 2A
From the text: The alternative approach utilized His-tagging and column purification of the mutant PDS protins.
In order to express pds in bacteria, deletion clones were made for each of the three potential start codons with and without ATG. […] The forward primers used were ORF (5′ […] 3′), ORF-ATG (5′ […] 3′), 3_ORF (5′[…] 3′) and 3_ORF-ATG (5′ […] 3′). The resulting plasmids were named pORF, pORF-ATG (minus ATG codon), p3ORF and p3ORF-ATG. The pds-containing EcoRI-fragments of these plasmids were subcloned into the EcoRI site of pRSETb vector (Invitrogen) for Histidine tagging and bacterial expression. The resulting constructs were pHy4SET, pHy4SET-ATG (minus ATG), p3ORFSET and p3ORFSET-ATG.
Primers used to replace Arg by His were Hyd-His-For (5′[…] 3′) and Hyd-His-Rev (5′ […] 3′); to replace Arg by Thr we used primers Hyd-Thr-For (5′[…] 3′) and Hyd-Thr-Rev (5′[…] 3′); to replace Arg by Ser we used Hyd-Ser-For (5′[…] 3′) and Hyd-Ser-Rev (5′[…] 3′); and Arg was replaced by Cys using Hyd-Cys-For (5′[…] 3′) and Hyd-Cys-Rev (5′[…] 3′). Resulting plasmids were named: p3ORFHisSet-ATG, p3ORFThrSet-ATG, p3ORFSerSet-ATG and p3ORFCysSet-ATG.
All pRSET derived constructs were transformed into BL21(DE3)pLysS cells (Invitrogen), induced with IPTG for protein expression, and the His tag overproduced proteins analyzed by Western blot using Anti-HisG antibody (Invitrogen, cat. #R940-25).
BL21(DE3)pLysS cells were grown overnight in 500 ml Luria Broth (LB) supplemented with carbenicillin (100 mg/l) and cloramphenicol (60 mg/l) at 37° C., and induced with 0.3 mM isopropylthio-β-D-galactoside (IPTG) for 3 hrs. Cells were lysed using a French press (Spectronics Instrument) at 20,000 psi and overexpressed PDS was purified on a nickel activated Hitrap Chelating HP column according to the manufacturers instructions (Amersham Bioscience).
Generally, PDS protein fractions prepared as described above (Non-His-tagged and His-tagged) were mixed with a soluble fraction from phytoene-producing E. coli cells. […] This E. coli strain was separately cultured and lysed, and its soluble components collected (“the EB extract”) in a fashion similar to that described above for the PDS-producing cells.
His-tagged, purified proteins prepared as described above were transferred to the assay buffer on a PD10 column (Amersham Bioscience) and the concentration was adjusted to 100 μg/mL. Crude extracts containing phytoene were produced in E. coli JM101/pACCRT-EB containing geranylgeranyl pyrophosphate synthase and phytoene synthase enzymes from Erwinia uredova as described above. The reaction assays consisted of 50 μg PDS in 500 μl of assay buffer (200 mM Sodium Phosphate, pH 7.2) and 500 μl of pACCRT-EB extract. The herbicide (10 μL in MeOH) was added to the 500 μl of PDS extract and incubated on ice for 15 minutes prior to mixing it with the EB extract. […] Dose-response curves were fitted to the four-parameter logistic function. […] I^50 values were calculated from the regressions.

Sequence of hydrilla PDS position 304 Arginine, His-tagged (Q66PY0 77-580): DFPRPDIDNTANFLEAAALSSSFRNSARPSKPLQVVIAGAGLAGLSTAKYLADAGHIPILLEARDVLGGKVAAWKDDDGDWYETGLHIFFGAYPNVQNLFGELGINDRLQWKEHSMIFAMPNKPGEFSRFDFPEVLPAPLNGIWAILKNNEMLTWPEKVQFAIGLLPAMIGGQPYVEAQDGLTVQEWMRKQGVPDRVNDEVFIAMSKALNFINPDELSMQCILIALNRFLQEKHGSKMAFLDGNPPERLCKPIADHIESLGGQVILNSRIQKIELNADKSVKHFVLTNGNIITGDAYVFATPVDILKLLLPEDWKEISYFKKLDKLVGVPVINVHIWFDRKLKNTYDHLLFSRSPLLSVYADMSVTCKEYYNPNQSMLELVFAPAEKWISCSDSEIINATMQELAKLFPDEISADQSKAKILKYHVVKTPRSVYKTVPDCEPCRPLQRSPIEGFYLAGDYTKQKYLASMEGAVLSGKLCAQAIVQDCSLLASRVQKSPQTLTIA

Compound	IC50 [µM]	R/S (30 min)	R/S
CNc1cnn(-c2cccc(C(F)(F)F)c2)c(=O)c1Cl [Norflurazon]	50		
CNC1=C(c2cccc(C(F)(F)F)c2)C(=O)C(c2ccccc2)O1 (centres unmarked) [Flurtamone]	300	1	
CCC(Oc1ccc(F)c(C(F)(F)F)c1)C(=O)NCc1ccccc1 (centres unmarked) [Beflubutamid]	72		1
O=C(Nc1ccc(F)cc1)c1cccc(Oc2cccc(C(F)(F)F)c2)n1 [Piconilafen, Picolinafen]	327		
O=C1C(Cl)C(CCl)CN1c1cccc(C(F)(F)F)c1 (centres unmarked) [Fluorochloridone]	130	1	
O=C(Nc1ccc(F)cc1F)c1cccnc1Oc1cccc(C(F)(F)F)c1 [Diflufenican]	101	1	
Fluridone		1	

— patent publication US20110098180A1, “Herbicide-Resistant Plants, And Polynucleotides And Methods For Providing Same” (United States Department of Agriculture, priority 2002, published 2011)
